Entries after “also recorded” stand apart in the source; their conditions may differ. Where two headings read alike, the source gives them in different places.
Key:
[1] = Multiple oral dose plasma pharmacokinetics in healthy subjects; format: in vivo, human; conditions: for Cmax / AUC / Tmax: human, plasma
FGF15 = test: Serum FGF15 (MSD assay) in chronic rat ANIT-induced cholestasis model; format: in vivo; conditions: chronic treatment rat ANIT model
Procedure: Serum FGF15 levels were quantified using an FGF15 Meso Scale Discovery (MSD) assay. Mouse FGF15 antibody from R&D Systems (AF6755) was used both as capture and detection antibody in the assay. MSD SULFO-TAG NHS-Ester was used to label the FGF15 antibody. MSD standard 96-well plates were coated with the FGF15 capture antibody and the plates were blocked with MSD Blocker A (R93AA-2). After washing the plate with PBS+0.05% Tween 20, MSD diluent 4 was dispensed into each well and incubated for 30 min. 25 μl of calibrator dilutions or samples (serum or EDTA plasma) were dispensed into each well and incubated with shaking at RT. After washing, detection antibody was added and incubated with shaking for 1 h at RT. After washing and the addition of MSD Read buffer (R92TC-2), the plate was read on an MSD SECTOR Imager 6000. Plots of the standard curve and unknown samples were calculated using MSD data analysis software.
Activation of FXR in the ileum induces the expression of fibroblast growth factor 15 (FGF15 in rodent; FGF19 in human), a hormone that is secreted in the portal blood and signals to the liver to repress Cyp7a1 expression synergistically with SHP. The direct FXR-dependent induction of FGF15/19 along with FGF15/19's anti-cholestatic properties makes it a convenient serum biomarker for detecting target engagement of FXR agonists.

[2] = Food effect (high-fat meal vs fasted) on pharmacokinetics; format: in vivo, human; conditions: taken with a high-fat meal
Procedure: To avoid variability in drug exposure, it is recommended that throughout the treatment period, patients will be directed to take study drug at home with ˜240 mL (8 ounces) of water in the morning in a fasting state, at least 30 min prior to the first beverage apart from water and 60 min prior to first meal of the day, preferably at the same time of the day.

[3] = Safety and tolerability in healthy subjects; format: in vivo, human
[4] = system: rat alpha-naphthyl-isothiocyanate (ANIT) model; test: Chronic treatment rat ANIT model, serum markers of cholestasis and liver damage; format: in vivo; conditions: 14 days oral dosing
Procedure: This model was utilized because it recapitulates many features of cholestasis observed in human PBC. In rats, ANIT-treatment leads to hepatic inflammatory cell infiltrate, bile duct hyperplasia, necrosis of bile duct epithelium, expansion of the hepatic portal region, hepatic fibrosis, hepatocellular necrosis and elevated levels of circulating bile acids, bilirubin, ALT, AST and GGT. These features are similar to subjects with advanced PBC.
Rats were treated with alpha-naphthyl-isothiocyanate (ANIT) (0.1% w/w) in food for 3 days prior to treatment with the compound at the indicated doses or with vehicle control (“Veh”). A non-cholestatic control group was fed standard chow diet without ANIT, and serve as the non-cholestatic control animals (“Control”). After 14 days of oral dosing, the indicated analyte was measured in serum. LLQ, lower limit of quantitation. Mean±SEM; n=5.

[5] = healthy subjects, 10 μg qd, Day 1, plasma, mean
[6] = healthy subjects, 10 μg qd, Day 13, plasma, mean
[7] = healthy subjects, 30 μg qd, Day 1, plasma, mean
[8] = healthy subjects, 30 μg qd, Day 13, plasma, mean
[9] = healthy subjects, 60 μg qd, Day 1, plasma, mean
[10] = healthy subjects, 60 μg qd, Day 13, plasma, mean
[11] = healthy subjects, 100 μg qd, Day 1, plasma, mean
[12] = healthy subjects, 100 μg qd, Day 13, plasma, mean
[13] = clinical study in healthy subjects

With `O=C(O)c1cc(F)c2nc(N3C4CC[C@H]3CC(OCc3c(-c5ccccc5OC(F)(F)F)noc3C3CC3)C4)sc2c1` (some centres unmarked) [Compound A] the Racc [1, 5] was 1.00, the Tlast [1, 5] was 23.9 h and the Racc [1, 6] was 1.87. For the same molecule, the Tlast [1, 6] was 23.6 h, the Racc [1, 7] was 1.00 and the Tlast [1, 7] was 23.9 h. The Racc [1, 8] was 1.21, the Tlast [1, 8] was 23.6 h and the Racc [1, 9] was 1.00. For the same molecule, the Tlast [1, 9] was 23.9 h, the Racc [1, 10] was 1.66 and the Tlast [1, 10] was 22.3 h. It also gave a Racc [1, 11] of 1.00, a Tlast [1, 11] of 23.9 h and a Racc [1, 12] of 1.41. For the same molecule, the Tlast [1, 12] was 23.6 h, the Cmax ([1]; oral, 10 μg, average Cmax at day 13 for a dose level of 10 μg, exposures for the doses 10-100 μg normalized to 10 μg) was 0.32 ng/mL and the AUC ([1]; oral, 10 μg, exposures for the doses 10-100 μg normalized to 10 μg, read-out: average AUCtau at day 13 for a dose level of 10 μg) was 0.00484 µg·h/mL. The AUC ([1]; oral, 10 ug, healthy subjects, 10 μg qd, Day 1, plasma, mean, read-out: AUCtau) was 0.00288 µg·h/mL, the Cmax ([1]; oral, 10 ug, healthy subjects, 10 μg qd, Day 1, plasma, mean, read-out: Cmax) was 0.212 ng/mL and the Tmax ([1]; oral, 10 ug, healthy subjects, 10 μg qd, Day 1, plasma, median, read-out: Tmax) was 4 h. The AUC ([1]; oral, 10 ug, healthy subjects, 10 μg qd, Day 13, plasma, mean, read-out: AUCtau) was 0.00488 µg·h/mL, the Cmax ([1]; oral, 10 ug, healthy subjects, 10 μg qd, Day 13, plasma, mean, read-out: Cmax) was 0.319 ng/mL and the Tmax ([1]; oral, 10 ug, healthy subjects, 10 μg qd, Day 13, plasma, median, read-out: Tmax) was 4 h. The AUC ([1]; oral, 30 ug, healthy subjects, 30 μg qd, Day 1, plasma, mean, read-out: AUCtau) was 0.0117 µg·h/mL, the Cmax ([1]; oral, 30 ug, healthy subjects, 30 μg qd, Day 1, plasma, mean, read-out: Cmax) was 0.894 ng/mL and the Tmax ([1]; oral, 30 ug, healthy subjects, 30 μg qd, Day 1, plasma, median, read-out: Tmax) was 6 h. It also gave an AUC ([1]; oral, 30 ug, healthy subjects, 30 μg qd, Day 13, plasma, mean, read-out: AUCtau) of 0.014 µg·h/mL, a Cmax ([1]; oral, 30 ug, healthy subjects, 30 μg qd, Day 13, plasma, mean, read-out: Cmax) of 0.943 ng/mL and a Tmax ([1]; oral, 30 ug, healthy subjects, 30 μg qd, Day 13, plasma, median, read-out: Tmax) of 4 h. It also gave an AUC ([1]; oral, 60 ug, healthy subjects, 60 μg qd, Day 1, plasma, mean, read-out: AUCtau) of 0.0162 µg·h/mL, a Cmax ([1]; oral, 60 ug, healthy subjects, 60 μg qd, Day 1, plasma, mean, read-out: Cmax) of 1.22 ng/mL and a Tmax ([1]; oral, 60 ug, healthy subjects, 60 μg qd, Day 1, plasma, median, read-out: Tmax) of 4 h. The AUC ([1]; oral, 60 ug, healthy subjects, 60 μg qd, Day 13, plasma, mean, read-out: AUCtau) was 0.0253 µg·h/mL, the Cmax ([1]; oral, 60 ug, healthy subjects, 60 μg qd, Day 13, plasma, mean, read-out: Cmax) was 1.61 ng/mL and the Tmax ([1]; oral, 60 ug, healthy subjects, 60 μg qd, Day 13, plasma, median, read-out: Tmax) was 4 h. For the same molecule, the AUC ([1]; oral, 100 ug, healthy subjects, 100 μg qd, Day 1, plasma, mean, read-out: AUCtau) was 0.0303 µg·h/mL, the Cmax ([1]; oral, 100 ug, healthy subjects, 100 μg qd, Day 1, plasma, mean, read-out: Cmax) was 2.4 ng/mL and the Tmax ([1]; oral, 100 ug, healthy subjects, 100 μg qd, Day 1, plasma, median, read-out: Tmax) was 4 h. The AUC ([1]; oral, 100 ug, healthy subjects, 100 μg qd, Day 13, plasma, mean, read-out: AUCtau) was 0.0502 µg·h/mL, the Cmax ([1]; oral, 100 ug, healthy subjects, 100 μg qd, Day 13, plasma, mean, read-out: Cmax) was 3.47 ng/mL and the Tmax ([1]; oral, 100 ug, healthy subjects, 100 μg qd, Day 13, plasma, median, read-out: Tmax) was 4 h. The Tmax ([1]; po, once daily oral dosing 10-100 μg, fasted, post-dose, read-out: Tmax range) was 3 to 10 h, the Tmax ([1]; po, once daily oral dosing for 13 days, fasted, Day 13, across all doses, read-out: median Tmax) was 4 h and the “dose proportionality of Cmax and AUCtau” value ([1]; once daily doses for 13 days, 10-100 μg) was “approximately dose-proportional increase”. The time to steady-state ([1]; once daily oral dosing, trough levels) was ≤ 4 days, the “serum FGF15 levels” value (FGF15) was “stimulated serum FGF15 expression; also recorded: Significant dose-dependent induction” and the Tmax ([2]; human, plasma, oral, read-out: median Tmax) was 9 h. For the same molecule, the “increase of mean AUCinf compared to the fasted state” value [2] was “approximately 60%”, the “increase of mean Cmax compared to the fasted state” value [2] was “approximately 60%” and the “elevation of transaminases (ALT and AST), number of subjects” value ([3]; 100 μg repeated daily) was 3 subjects. The ALP or bilirubin ([3]; 100 μg repeated daily, any subject) was “no elevation”, the “time for elevated ALT to resolve to within normal levels” value ([3]; 100 μg, without intervention) was ≤ 14 days and the “adverse events related to itch” value [3, 13] was “no adverse events related to itch”. The “physical exam, vital signs or ECGs” value [3, 13] was “No significant findings”, the tolerability ([3]; repeated daily administration, doses up to and including 60 μg) was “well tolerated” and the “serum bile acid concentrations” value [4] was “Marked reductions”. The serum bilirubin concentrations [4] was “Marked reductions” and the “hepatobiliary injury indicators (AST, ALT, bilirubin, bile acids) in serum” value ([4]; 0.01 to 3 mg/kg) was “improved many of these indicators starting at doses as low as 0.01 mg/kg”.

— patent US20210386729A1, “METHODS FOR TREATING LIVER DISORDERS USING FXR AGONISTS” (NOVARTIS AG, priority 2016, published 2021)
